Data as given in ChEMBL document CHEMBL5523755, “Design, Synthesis, and Biological Evaluation of 1,4-Dihydropyridine-Indole as a Potential Antidiabetic Agent via GLUT4 Translocation Stimulation” (J Med Chem, 2024).
The source made the active and inactive calls. The calls are words filed in the database; no cut-off is given here.

Assays:
[1] = molecular target: T1, Solute carrier family 2, facilitated glucose transporter member 4 (Rattus norvegicus) (UniProt P19357); test: Induction of GLUT4 translocation in rat L6-GLUT4myc skeletal muscle cells assessed as translocation to cell surface by measuring fold stimulation at 10 uM measured after 1 hr incubation by antibody-coupled colorimetric assay relative to control; assay type: cell-based; conditions: filed as modulator
T1 sequence (whole entry): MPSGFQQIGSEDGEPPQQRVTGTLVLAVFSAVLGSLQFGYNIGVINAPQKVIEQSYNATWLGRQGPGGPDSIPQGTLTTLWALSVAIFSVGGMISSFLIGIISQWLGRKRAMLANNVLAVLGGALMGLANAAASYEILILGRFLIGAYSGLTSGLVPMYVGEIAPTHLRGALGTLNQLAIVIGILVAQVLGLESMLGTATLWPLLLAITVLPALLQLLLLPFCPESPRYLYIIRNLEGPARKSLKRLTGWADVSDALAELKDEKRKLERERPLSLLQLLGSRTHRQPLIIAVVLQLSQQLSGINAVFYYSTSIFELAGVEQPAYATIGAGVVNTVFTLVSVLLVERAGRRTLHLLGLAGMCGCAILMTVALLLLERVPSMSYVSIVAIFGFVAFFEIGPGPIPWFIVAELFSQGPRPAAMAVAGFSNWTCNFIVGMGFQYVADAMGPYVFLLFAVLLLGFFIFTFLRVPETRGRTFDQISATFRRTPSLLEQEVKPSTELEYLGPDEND

[2] = molecular target: T1, Solute carrier family 2, facilitated glucose transporter member 4 (Rattus norvegicus); test: Induction of GLUT4 translocation in rat L6-GLUT4myc skeletal muscle cells assessed as translocation to cell surface by measuring fold stimulation measured after 16 hrs incubation by antibody-coupled colorimetric assay relative to control; assay type: cell-based; conditions: filed as modulator, dose 5-25 µM
[3] = molecular target: T1, Solute carrier family 2, facilitated glucose transporter member 4 (Rattus norvegicus); test: Induction of GLUT4 translocation in rat L6-GLUT4myc skeletal muscle cells assessed as translocation to cell surface by measuring fold stimulation at 500 uM measured after 1 hr incubation by antibody-coupled colorimetric assay relative to control; assay type: cell-based; conditions: filed as modulator
[4] = molecular target: T2, Beta-galactosidase (Homo sapiens) (UniProt P16278); test: Inhibition of beta-galactosidase (unknown origin) at 100 uM relative to control
T2 sequence (whole entry): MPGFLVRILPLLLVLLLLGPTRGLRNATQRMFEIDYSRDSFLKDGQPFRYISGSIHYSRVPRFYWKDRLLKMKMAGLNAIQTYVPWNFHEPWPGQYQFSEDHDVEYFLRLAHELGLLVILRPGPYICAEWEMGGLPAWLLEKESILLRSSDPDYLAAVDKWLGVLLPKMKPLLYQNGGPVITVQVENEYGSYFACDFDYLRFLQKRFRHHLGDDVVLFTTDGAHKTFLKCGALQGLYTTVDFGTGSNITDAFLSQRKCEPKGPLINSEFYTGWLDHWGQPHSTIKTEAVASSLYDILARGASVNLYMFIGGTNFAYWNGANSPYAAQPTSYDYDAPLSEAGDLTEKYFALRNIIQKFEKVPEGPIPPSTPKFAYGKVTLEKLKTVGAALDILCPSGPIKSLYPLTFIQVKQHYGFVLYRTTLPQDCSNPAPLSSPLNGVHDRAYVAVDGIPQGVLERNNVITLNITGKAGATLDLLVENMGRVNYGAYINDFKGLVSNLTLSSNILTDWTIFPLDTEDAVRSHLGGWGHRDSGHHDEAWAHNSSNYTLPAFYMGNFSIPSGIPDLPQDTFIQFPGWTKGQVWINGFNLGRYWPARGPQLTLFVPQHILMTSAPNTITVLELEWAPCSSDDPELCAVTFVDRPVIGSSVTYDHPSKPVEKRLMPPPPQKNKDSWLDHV

[5] = Stability of the compound in simulated physiological fluid (SPF) assessed as compound remaining measured upto 120 mins relative to control; assay type: ADME; conditions: read-out: Stability
Rattus norvegicus = test: Antihyperglycemic activity in STZ-induced Sprague-Dawley rat diabetic model assessed as decrease in blood glucose at 100 mg/kg, po measured upto 300 mins; assay type: functional, organism-based
[6] = MRT in Sprague-Dawley rat at 100 mg/kg, po measured after 48 hrs by LC-MS/MS analysis; assay type: ADME, organism-based; conditions: in vivo
[7] = Stability of the compound in rat plasma assessed as compound remaining measured upto 120 mins relative to control; assay type: ADME, cell-free; conditions: read-out: Stability
[8] = Apparent volume of distribution in Sprague-Dawley rat at 100 mg/kg, po measured after 48 hrs by LC-MS/MS analysis; assay type: ADME, organism-based; conditions: in vivo
[9] = molecular target: T1, Solute carrier family 2, facilitated glucose transporter member 4 (Rattus norvegicus); test: Induction of GLUT4 translocation in rat L6-GLUT4myc skeletal muscle cells assessed as translocation to cell surface by measuring fold stimulation at 10 uM measured after 16 hrs incubation in presence of wortmannin PI3 Kinase inhibitor by antibody-coupled colorimetric assay; assay type: cell-based
[10] = Elimination half life in Sprague-Dawley rat at 100 mg/kg, po measured after 48 hrs by LC-MS/MS analysis; assay type: ADME, organism-based; conditions: in vivo, read-out: beta t1/2 (converted)
[11] = molecular target: T1, Solute carrier family 2, facilitated glucose transporter member 4 (Rattus norvegicus); test: Induction of GLUT4 translocation in rat L6-GLUT4myc skeletal muscle cells assessed as translocation to cell surface by measuring fold stimulation at 10 uM measured after 16 hrs incubation in presence of compound c AMPK inhibitor by antibody-coupled colorimetric assay; assay type: cell-based; conditions: filed as modulator
[12] = Stability of the compound in simulated intestinal fluid (SIF) assessed as compound remaining measured upto 120 mins relative to control; assay type: ADME; conditions: read-out: Stability
[13] = molecular target: RAC-alpha serine/threonine-protein kinase (Rattus norvegicus) (UniProt P47196); test: Induction of AKT phosphorylation at Ser 473 in rat L6-GLUT4myc skeletal muscle cells at 10 uM measured after 16 hrs incubation by immunoblotting analysis; assay type: cell-based; conditions: filed as modulator
[14] = Cmax in Sprague-Dawley rat at 100 mg/kg, po measured after 48 hrs by LC-MS/MS analysis; assay type: ADME, organism-based; conditions: in vivo
[15] = AUC in Sprague-Dawley rat at 100 mg/kg, po measured after 48 hrs by LC-MS/MS analysis; assay type: ADME, organism-based; conditions: in vivo
L6-GLUT4myc = test: Induction of GPR40 expression in rat L6-GLUT4myc skeletal muscle cells assessed as increase in mRNA level at 10 uM measured after overnight incubation by RT-PCR analysis; assay type: functional, cell-based; conditions: filed as activator
[16] = molecular target: T1, Solute carrier family 2, facilitated glucose transporter member 4 (Rattus norvegicus); test: Induction of insulin-induced GLUT4 translocation in rat L6-GLUT4myc skeletal muscle cells assessed as translocation to cell surface at 10 uM measured after 16 hrs incubation (final 3 hrs under serum starved medium) followed by stimulated with 100 nM insulin for 20 mins by antibody-coupled colorimetric assay; assay type: cell-based
[17] = Stability of the compound in simulated gastric fluid (SGF) assessed as compound remaining measured upto 120 mins relative to control; assay type: ADME; conditions: read-out: Stability
[18] = Tmax in Sprague-Dawley rat at 100 mg/kg, po measured after 48 hrs by LC-MS/MS analysis; assay type: ADME, organism-based; conditions: in vivo
[19] = Clearance in Sprague-Dawley rat at 100 mg/kg, po measured after 48 hrs by LC-MS/MS analysis; assay type: ADME, organism-based; conditions: in vivo

RAC-alpha serine/threonine-protein kinase (Rattus norvegicus), sequence (P47196 whole entry): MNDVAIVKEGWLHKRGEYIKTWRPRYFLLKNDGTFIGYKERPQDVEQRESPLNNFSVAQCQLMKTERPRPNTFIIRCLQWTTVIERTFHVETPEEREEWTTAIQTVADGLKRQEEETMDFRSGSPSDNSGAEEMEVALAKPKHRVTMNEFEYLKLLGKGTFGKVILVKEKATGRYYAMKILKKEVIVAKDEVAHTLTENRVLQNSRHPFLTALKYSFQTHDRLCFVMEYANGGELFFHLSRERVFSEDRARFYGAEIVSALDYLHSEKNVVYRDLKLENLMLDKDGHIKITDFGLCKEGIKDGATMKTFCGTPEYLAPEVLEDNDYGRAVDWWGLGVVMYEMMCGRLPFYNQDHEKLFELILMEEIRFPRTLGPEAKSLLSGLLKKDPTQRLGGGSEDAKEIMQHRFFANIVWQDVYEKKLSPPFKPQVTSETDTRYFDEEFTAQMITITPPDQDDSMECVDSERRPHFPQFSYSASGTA

Row | Structure (SMILES) | fold change (FC) [1] | further results
1 | COc1cc(C2C(C(=O)NCCc3c[nH]c4ccccc34)=C(C)NC3=C2C(=O)CCC3)cc(OC)c1OC (stereo not drawn) | 1.79 | Activity [2]: Dose-Dependent Effect
2 | CN(C)C(=N)NC(=N)N |  | fold change (FC) [3]: 1.86
3 | CC1=C(C(=O)NCCc2c[nH]c3ccccc23)C(c2c(Cl)cccc2Cl)C2=C(CC(C)(C)CC2=O)N1 (stereo not drawn) | 0.82 | 
4 | CC1=C(C(=O)NCCc2c[nH]c3ccccc23)C(c2ccc(C#N)cc2)C2=C(CC(C)(C)CC2=O)N1 (stereo not drawn) | 0.96 | 
5 | O=C(NC(Cc1c[nH]c2ccccc12)C(=O)O)c1cccc(Cl)c1 (stereo not drawn) |  | inhibition [4]: 49%
6 | NCCc1c[nH]c2ccccc12 | 1.08 | 
7 | CC1=C(C(=O)NCCc2c[nH]c3ccccc23)C(c2cccs2)C2=C(CC(C)(C)CC2=O)N1 (stereo not drawn) | 1.09 | 
8 | COc1cc(C2C(C(=O)NCCc3c[nH]c4ccccc34)=C(C)NC3=C2C(=O)CC(C)(C)C3)cc(OC)c1OC (stereo not drawn) | 1.21 | 
9 | CC1=C(C(=O)NCCc2c[nH]c3ccccc23)C(c2ccsc2)C2=C(CC(C)(C)CC2=O)N1 (stereo not drawn) | 1.87 | Activity [2]: Dose-Dependent Effect
10 | CSc1ccc(C2C(C(=O)NCCc3c[nH]c4ccccc34)=C(C)NC3=C2C(=O)CC(C)(C)C3)cc1 (stereo not drawn) | 1.33 | 
11 | CC1=C(C(=O)NCCc2c[nH]c3ccccc23)C(c2ccc([N+](=O)[O-])cc2)C2=C(CC(C)(C)CC2=O)N1 (stereo not drawn) | 1.72 | 
12 | Cc1nc2c(c(-c3ccc(Cl)c(Cl)c3)c1C(=O)NCCc1c[nH]c3ccccc13)C(=O)CC(C)(C)C2 | 1.42 | 
13 | CC1=C(C(=O)NCCc2c[nH]c3ccccc23)C(c2ccc(Cl)c(Cl)c2)C2=C(CC(C)(C)CC2=O)N1 (stereo not drawn) | 2.96 | remaining at 2 h [5]: 96.2%; Activity (Rattus norvegicus): Active; MRT [6]: 20.8 h; remaining at 2 h [7]: 90.2%; Vd(app) [8]: 5281.28 L/kg; Activity [9]: inactive; half-life [10]: 14.3 h; Activity [11]: Active; remaining at 2 h [12]: 91.1%; Activity [13]: Active; Cmax [14]: 51.7 ng/mL; AUC at 48 h [15]: 367 ng·h/mL; Activity (L6-GLUT4myc): Active; Activity [16]: inactive; remaining at 2 h [17]: 90.8%; Activity [2]: Dose-Dependent Effect; Tmax [18]: 0.42 h; CL/F [19]: 254 L/h/kg
14 | CC1=C(C(=O)NCCc2c[nH]c3ccccc23)C(c2ccco2)C2=C(CC(C)(C)CC2=O)N1 (stereo not drawn) | 2.01 | Activity [2]: Dose-Dependent Effect
15 | CC1=C(C(=O)NCCc2c[nH]c3ccccc23)C(c2ccc(O)c(O)c2)C2=C(CC(C)(C)CC2=O)N1 (stereo not drawn) | 0.99 | 
16 | CC1=C(C(=O)NCCc2c[nH]c3ccccc23)C(c2ccc(F)cc2)C2=C(CC(C)(C)CC2=O)N1 (stereo not drawn) | 1 | 
17 | CC1=C(C(=O)NCCc2c[nH]c3ccccc23)C(c2cccc([N+](=O)[O-])c2)C2=C(CC(C)(C)CC2=O)N1 (stereo not drawn) | 1.86 | Activity [2]: Dose-Dependent Effect
18 | COc1ccc(C2C(C(=O)NCCc3c[nH]c4ccccc34)=C(C)NC3=C2C(=O)CCC3)cc1OC (stereo not drawn) | 1.48 | 

Row | Structure (SMILES) | fold change (FC) [1] | further results
19 | CC1=C(C(=O)NCCc2c[nH]c3ccccc23)C(c2ccc(F)cc2)C2=C(CCCC2=O)N1 (stereo not drawn) | 1.54 | 
20 | CC1=C(C(=O)NCCc2c[nH]c3ccccc23)C(c2ccc(Cl)cc2)C2=C(CC(C)(C)CC2=O)N1 (stereo not drawn) | 1.49 | 
21 | CC1=C(C(=O)NCCc2c[nH]c3ccccc23)C(c2ccc(C(F)(F)F)cc2)C2=C(CC(C)(C)CC2=O)N1 (stereo not drawn) | 1.58 | 
22 | CC1=C(C(=O)NCCc2c[nH]c3ccccc23)C(c2ccc(OC(F)(F)F)cc2)C2=C(CC(C)(C)CC2=O)N1 (stereo not drawn) | 2.11 | Activity [2]: Dose-Dependent Effect
23 | CCOC(=O)C1=C(C)NC2=C(C(=O)CC(C)(C)C2)C1c1ccc(Cl)c(Cl)c1 (stereo not drawn) | 1.92 | 
24 | CC1=C(C(=O)NCCc2c[nH]c3ccccc23)C(c2ccco2)C2=C(CCCC2=O)N1 (stereo not drawn) | 1.62 | 
25 | COc1ccc2[nH]cc(CCNC(=O)C3=C(C)NC4=C(C(=O)CC(C)(C)C4)C3c3ccc(Cl)c(Cl)c3)c2c1 (stereo not drawn) | 1.37 | 
26 | CCNC(=O)C1=C(C)NC2=C(C(=O)CC(C)(C)C2)C1c1ccc(Cl)c(Cl)c1 (stereo not drawn) | 1.16 | 
27 | CC1=C(C(=O)NCCc2c[nH]c3ccccc23)C(c2cccc([N+](=O)[O-])c2)C2=C(CCCC2=O)N1 (stereo not drawn) | 1.71 | 
28 | CC1=C(C(=O)Nc2ccccc2)C(c2ccc(Cl)c(Cl)c2)C2=C(CC(C)(C)CC2=O)N1 (stereo not drawn) | 1.1 | 
29 | CC1=C(C(=O)NCCc2c(C)[nH]c3ccccc23)C(c2ccc(Cl)c(Cl)c2)C2=C(CC(C)(C)CC2=O)N1 (stereo not drawn) | 1.42 | 
30 | CC1=C(C(=O)NCCc2c[nH]c3ccccc23)C(c2ccsc2)C2=C(CCCC2=O)N1 (stereo not drawn) | 1.64 | 
31 | COc1ccc(C2C(C(=O)NCCc3c[nH]c4ccccc34)=C(C)NC3=C2C(=O)CC(C)(C)C3)cc1 (stereo not drawn) | 1.39 | 
32 | COc1ccc(C2C(C(=O)NCCc3c[nH]c4ccccc34)=C(C)NC3=C2C(=O)CC(C)(C)C3)cc1OC (stereo not drawn) | 1.3 | 
33 | CC(=O)CC(=O)NCCc1c[nH]c2ccccc12 | 1.18 | 
34 | CC1=C(C(=O)NCCc2c[nH]c3ccccc23)C(c2scnc2C)C2=C(CC(C)(C)CC2=O)N1 (stereo not drawn) | 1 | 
35 | CC1=C(C(=O)NCCc2c[nH]c3ccccc23)C(c2cccc(Cl)c2Cl)C2=C(CC(C)(C)CC2=O)N1 (stereo not drawn) | 1.52 | 
